Laboratory results taken from US9290544B2, “Methods for making and using molecular switches involving circular permutation” (priority 2004, dated 2016).
Several values for one entry are separate records, joined by “and”; a condition that tells them apart may be missing. Equal values may be shown once.

Experiments:
[1] = tested on: DH5α-E cells; assay: In vivo characterization: MIC of ampicillin for DH5α-E cells expressing the protein; assay type: cell-based, E. coli; conditions: for Minimum Inhibitory Concentration of Ampicillin: LB plates, 37° C., 20 hours
Protocol: Overnight inoculums of DH5α-E cells expressing RG13, BLA or BLA(W208G) were diluted into LB media and plated on LB plates, either in the absence or presence of 50 μM maltose, in the presence of increasing amounts of ampicillin. Ampicillin was present in the plates at the following concentrations: 0, 2, 4, 8, 16, 32, 64, 128, 256, 512, and 2000 μg/ml. Cells were plated at approximately 1000 CFU (no antibiotic) per plate. The plates were incubated at 37° C. for 20 hours. The minimum inhibitory concentration (MIC) was defined as the lowest ampicillin concentration at which no colonies were present, or that at which the number of colonies present was <1% of the number of colonies at the next lowest level of ampicillin.

[2] = Spectrophotometric nitrocefin hydrolysis assay of purified RG-200-13, 22° C.; assay type: biochemical; conditions: for Change in velocity of nitrocefin hydrolysis in presence of sugar: 50 μM nitrocefin; for Change in velocity of nitrocefin hydrolysis in presence of sugar / Km / kcat: pH 7.0, 22° C.
Protocol: (§1) A 6×His tag was added to the C-terminus of RG-200-13 (also termed “RG13” in Examples below) and the fusion was purified as previously described (Guntas and Ostermeier 2004). The protein was purified to approximately 60% purity. The kinetic constants and binding constants were determined from Eadie-Hofstee plots and Eadie plot equivalents, respectively, using a spectrophotometric assay for nitrocefin hydrolysis. Initial rates for nitrocefin hydrolysis were determined from absorbance at 486 nm monitored as a function of time. The enzyme was incubated at the assay temperature in the absence or presence of saccharide for four minutes prior to performing the assay. All assays contained 100 mM sodium phosphate buffer, pH 7.0. The dissociation constant for maltose was determined using change in velocity of nitrocefin hydrolysis as a signal.

[3] = Steady state kinetics of nitrocefin hydrolysis, purified RG13 proteins, 25° C.; assay type: biochemical
Protocol: (§2) All kinetic assays were performed at 25° C. in the presence of 100 mM sodium phosphate buffer, pH 7.0. Ten μl of enzyme stock was added to 1.59 ml buffer (containing the saccharide, if desired). After incubation for 30 seconds, 0.4 ml of 5× substrate was added and the absorbance at the appropriate wavelength was recorded using the Cary50 UV-VIS spectrophotometer. The wavelength monitored was 486 nm, 240 nm, and 232 nm for nitrocefin, carbenicillin, and ampicillin respectively. From the initial rate of reaction the kinetic constants were determined using Eadie-Hofstee plots. […] The rate data was consistent with a small hysteretic effect (Brennan et al. 1994) and not substrate inhibition as preincubation of the enzyme with the substrate for one minute prevented the lag from occurring upon addition of more substrate. Therefore, the steady state parameters for nitrocefin hydrolysis in the absence of maltose were determined by measuring the rate at 1-2 minutes (well after the lag) and correcting the substrate concentration by subtracting the amount of substrate hydrolyzed. In all cases the extent of reaction at the point the rate was measured was less than 25%. In the presence of maltose, no lag was observed.

[4] = Hydrolysis of oxacillin by RG-200-13 with and without 5 mM maltose; assay type: biochemical; conditions: substrate oxacillin 1 mM; pH 7.0, 22° C.
Protocol: as §1
(§3) Maltose binding had the largest effect on cephalothin (of the substrates tested), with the velocity of cephalothin hydrolysis being 32-fold higher in the presence of maltose than in its absence.

[5] = Affinity of switches for maltose (method not given); assay type: binding
Excerpt: Exemplary switches were created by the method having different affinities for maltose.

[6] = Carbenicillin hydrolysis by purified RG13, 25° C.; assay type: biochemical; conditions: 50 μM carbenicillin
Protocol: as §2

[7] = Hydrolysis of carbenicillin by RG-200-13 with and without 5 mM maltose; assay type: biochemical; conditions: substrate carbenicillin 1 mM; pH 7.0, 22° C.
Protocol: as §1, §3

[8] = Maltose affinity by intrinsic protein fluorescence; assay type: binding
Protocol: Maltose affinity for RG13 (in presence and absence of 10 mM carbenicillin) and RG13(1329W) (in the absence of substrate) was determined using intrinsic protein fluorescence measured on a Photon Technology QuantaMaster QM-4 spectrofluorometer. Fluorescence spectra were obtained at 25° C. at different concentrations of maltose in 50 mM sodium phosphate buffer, pH 7.0, containing 100 mM sodium chloride. The protein concentration was 50-100 nM. Excitation was at 280 nm. The quenching in fluorescence intensity at 341 nm caused by maltose was used in Eadie-Hofstee equivalent plots to determine Kd using the following equation:
[formula] where ΔF is the change in fluorescence intensity, ΔFmax is the difference in fluorescence between no maltose and saturating amounts of maltose and [L] is the maltose concentration. The fluorescence quenching of RG13(1329W/A96W) upon addition of maltose was insufficient to accurately determine a Kd by this method. The dissociation constant for maltose and RG13(I329W) in the presence of saturating carbenicillin (2 mM) was determined by measuring the initial rate of carbenicillin hydrolysis as a function of maltose concentration. The apparent dissociation constant in the presence of subsaturating concentrations of nitrocefin (25 μM) for all three proteins was determined by measuring the initial rate of nitrocefin hydrolysis as a function of maltose concentration.

[9] = effector maltose 5 mM (saturating)
[10] = effector maltose 5 mM (saturating), nitrocefin, 25° C.
[11] = effector β-cyclodextrin 5 mM, nitrocefin, 25° C.
[12] = no effector, nitrocefin, pH 7.0, 25° C.

RG13: MBP-BLA fusion switch MBP[1-316]-BLA[227-286]-GSGGG-BLA[24-226]-S-MBP[319-370]; SEQ ID NO: 61
Effect of the same concentration (50 μM) of sucrose or glucose on the MIC [1]: did not affect the MIC
Increase of MIC for ampicillin in the presence of 50 μM maltose [1]: four-fold
Minimum Inhibitory Concentration of Ampicillin ([1]; 50 μM maltose): 512 µg/mL
Minimum Inhibitory Concentration of Ampicillin ([1]; No maltose): 128 µg/mL
Change in velocity of nitrocefin hydrolysis in presence of sugar ([2]; Galactose 5 mM): −3%
Change in velocity of nitrocefin hydrolysis in presence of sugar ([2]; Lactose 5 mM): −4%
Change in velocity of nitrocefin hydrolysis in presence of sugar ([2]; Maltose 5 mM): +1800%
Change in velocity of nitrocefin hydrolysis in presence of sugar ([2]; Maltotetraitol 5 mM): +400%
Change in velocity of nitrocefin hydrolysis in presence of sugar ([2]; Maltotriose 5 mM): +1700%
Change in velocity of nitrocefin hydrolysis in presence of sugar ([2]; Sucrose 5 mM): −5%
Km ([2]; nitrocefin, 5 mM maltose): ~85 µM
kcat ([2]; nitrocefin, 5 mM maltose, listed as RG-200-13): ~520 s⁻¹
Km Ratio (with maltose)/(without maltose) ([2]; nitrocefin, 22° C.): ~0.26
kcat Ratio (with maltose)/(without maltose) ([2]; nitrocefin, 22° C.): ~6.5
Km ([2]; nitrocefin, no maltose): ~325 µM
kcat ([2]; nitrocefin, no maltose): ~80 s⁻¹
Change in velocity of nitrocefin hydrolysis in presence of sugar ([2]; β-cyclodextrin 3 mM): +150%
Increase in the reaction rate on addition of subsaturating maltose ([3]; 20 μM nitrocefin, 2.5 nM RG13, 2 ml, 20 μl of 1 M maltose added (FIG. 7B)): 10 fold
Km Ratio (with effector)/(without effector) ([3]; effector maltose 5 mM): 0.12 ± 0.03
kcat Ratio (with effector)/(without effector) [3, 9]: 3 and 3.1 ± 0.6
kcat/Km Ratio (with effector)/(without effector) [3, 9]: 25 and 25 ± 7
Km [3, 10]: 68 ± 4 µM
kcat [3, 10]: 620 ± 60 s⁻¹ and 620 ± 30 s⁻¹
Km Ratio (with effector)/(without effector) ([3]; effector β-cyclodextrin 5 mM): 1.6 ± 0.4
kcat Ratio (with effector)/(without effector) ([3]; effector β-cyclodextrin 5 mM): 2.9 ± 0.6
kcat/Km Ratio (with effector)/(without effector) ([3]; effector β-cyclodextrin 5 mM): 1.8 ± 0.6
Km [3, 11]: 870 ± 90 µM
kcat [3, 11]: 590 ± 60 s⁻¹
Decrease of Km with saturating amounts of maltose ([3]; nitrocefin, 25° C.): 8 fold
Km [3, 12]: 550 ± 120 µM
kcat [3, 12]: 200 ± 40 s⁻¹
Effect of non-ligands on rate of nitrocefin hydrolysis ([3]; sucrose, lactose and galactose 5 mM, 20 μM nitrocefin (FIG. 7A)): no effect
Increase in the rate of nitrocefin hydrolysis upon addition of ligand ([3]; β-cyclodextrin 5 mM, 20 μM nitrocefin (FIG. 7A)): 2 fold
Approximate fold increase in velocity of oxacillin hydrolysis in the presence of 5 mM maltose [4]: ~5 fold
Kd [5]: 1 to 5 µM
Rate increase with maltose [6]: 12 fold
Approximate fold increase in velocity of carbenicillin hydrolysis in the presence of 5 mM maltose [7]: ~4 fold
Kd ([8]; 10 mM carbenicillin, 25° C., read-out: Kd maltose, Saturating Carbenicillin, IPF): 1.3 ± 0.5 µM
Kd ([8]; intrinsic protein fluorescence, 100 mM NaCl, 50 mM NaPO4, pH 7.0, 25° C., read-out: Kd maltose, No Substrate): 5.5 µM and 5 to 6 µM
Kd ([8]; text of Example 3, read-out: Dissociation constant for maltose in the presence of saturating amounts of carbenicillin): ~1 µM
